Measurements reported in patent US10358467B2, “Therapeutic targets for cancer progression” (The Regents of the University of California, priority 2015, dated 2019).

B1: His-DAPLE-CT FA: His-DAPLE-CT with F1675A mutation, Gαi3 binding-deficient mutant (protein)
chain: GTAPPYVGVRPCSASPSSEMVTLEEALEESNRSSPTHDTPSCRDDLLSDYFRKASDPPAIGGQPGPPAKKEGAKMPTNFVAPTVKMAAPTSEGRPLKPGQYVKPNFRLTEAEAPPSVAPRQAQPPQSLSLGRPRQAPVPPASHAPASRSASLSRAFSLASADLLRASGPEACKQESPQKLGAPEALGGRETGSHTLQSPAPPSSHSLARERTPLVGKAGSSCQGPGPRSRPLDTRRFSLAPPKEERLAPLHQSATAPAIATAGAGAAAAGSGSNSQLLHFSPAAAPAARTKPKAPPRSGEVATITPVRAGLSLSEGDGVPGQGCSEGLPAKSPGRSPDLAPHLGRALEDCSRGSVSKSSPASPEPGGDPQTVWYEYGCV
modifications: left off: small tags and cut ends

How the values were obtained:
[1] = test system: NIH3T3 cells; assay: 3D spheroid matrigel invasion assay; format: cell-based; settings: in response to Wnt5a
Protocol: NIH3T3 cell invasion assay in 3D culture was performed according to the manufacturer's protocol (Trevigen, Cultrex 3D Spheroid BME Cell Invasion Assay, catalog #3500-096-K). Briefly, non-invasive NIH3T3 cells (˜3000 cells) transfected with empty vector (control) or myc-DAPLEconstructs were incubated first in the Spheroid Formation extracellular matrix (ECM) containing 0.2% FBS for 3 days. Invasion matrix was then added and layered on top with media containing FBS. […] Photographs were analyzed and pseudocolored by Image J to reflect cell density.

[2] = test system: β-Catenin/TCF/LEF pathway in DLD1 7TGP cells; assay: β-Catenin reporter assay (7TGP); format: cell-based, human; settings: stable expression, starved and stimulated with Wnt5a, versus vector control
Protocol: These assays were carried out using the well-established reporter 7×Tcf-eGFP (7TGP) (Fuerer & Nusse, 2010). Stable cells lines expressing this reporter were generated by lentiviral transduction and subsequent selection using standard procedures. Lentiviral infection and selection were performed according to standard procedures. Briefly, 10 cm plates DLD1 cells at 70% confluency were incubated with media containing 8 μg/mL polybrene and 10 μl of lentivirus for 6 h. After 24 hours post infection, selection of puromycin-resistant clones was initiated by adding the antibiotic at 2 μg/ml final concentration. The resultant DLD1-7TGP stable cells were subsequently transfected with various myc-DAPLE constructs and selected for G418 resistance as described earlier in methods. The DLD1-7TGP cells stably expressing myc-DAPLE were incubated overnight at 0.2% FBS, analyzed by fluorescence microscopy, and photographed prior to lysis. Whole cell lysates samples were then boiled in Laemmli's sample buffer and GFP protein expression was monitored by immunoblotting.

[3] = test system: Ras-transformed NIH3T3 cells; assay: Transformation assay, colony formation in soft agar; format: cell-based; settings: NIH3T3 co-expressing HA-KRas G12V
Protocol: Neoplastic transformationin Ras-transformed NIH3T3 fibroblasts was analyzed using standard assays of colony formation in soft agar as described previously (Clark et al, 1995). Low passage NIH3T3 cells (˜5000) stably co-transfected with appropriate myc-DAPLE construct (2 μg cDNA) and HA-Ras G12V (1 μg cDNA) were analyzed for their ability to form tumor foci in soft agar plates. Plates were incubated in 5% CO2 at 37° C. for ˜2 weeks in growth media supplemented with 2% FBS. They were finally incubated with 0.1% (wt/vol)dimethylthiazol-2-yl)2 2,5-diphenyl tetrazolium bromide (MTT; Sigma) in PBS for 1 h to visualize colonies. The remaining NIH3T3 cells not used for this assay were lysed and analyzed for myc-DAPLE and Ha-Ras G12V expression by immunoblotting.

[4] = test system: DLD1 cells; assay: Anchorage-independent tumor growth assay; format: cell-based, human; settings: soft agar
Protocol: Anchorage-independent growth of DLD1 cells was analyzed in agar as described previously (Wallert M A, 2007). Briefly, petri plates (60 mm) were pre-layered with 3 ml 1% Bacto agar (Life Technologies) in DMEM containing 10% FBS. Approximately ˜5000 DLD1 cells stably expressing various DAPLE constructs were then plated on top in 3 ml of 0.3% agar-DMEM with 10% FBS. All assays were carried out using three replicate plates at a seeding density of ˜5000 cells/plate. Following overnight incubation in 5% CO2 incubator, 1 ml DMEM supplemented with 2% FBS was added to maintain hydration. After 2 wks of growth, colonies were stained with 0.005% crystal violet/methanol for 1 h, and subsequently photographed by light microscopy. The number of colonies in ˜15-20 randomly-selected fields were counted under 10× magnification. The remaining DLD1 cells were lysed and analyzed by immunoblotting to confirm DAPLE construct expression. Each experiment was analyzed in triplicate.

[5] = test system: DLD1 cells; assay: Anchorage-dependent tumor growth assay; format: cell-based, human; settings: for inhibition of anchorage-dependent tumor growth: DLD1 cells, plastic plates
Protocol: Anchorage-dependent growth was monitored on solid (plastic) surface as described previously (Franken et al, 2006). Briefly, anchorage-dependent growth was monitored on solid (plastic) surface. Approximately ˜1000 DLD1 cells stably expressing various DAPLE constructs were plated in 6-well plates and incubated in 5% CO2 at 37° C. for ˜2 weeks in 0.2% FBS growth media. Colonies were then stained with 0.005% crystal violet for 1 h. The remaining DLD1 cells were lysed and analyzed by immunoblotting to confirm DAPLE construct expression. Each experiment was analyzed in triplicate.

[6] = target: T1, His-Gαi3 (Rattus norvegicus, UniProt P08753); assay: Steady-state GTPase assay; format: biochemical; settings: parallel reactions, WT replaced by F1675A
T1 construct: His; made in house; host or cells: E. coli BL21 (DE3)
Protocol: Under the experimental conditions of steady-state GTPase assays, GTP hydrolysis occurs as a two-step reaction, i.e., 1) GDP is released from the G protein and exchanged for GTP, and 2) the GTP loaded is hydrolyzed. Nucleotide exchange is the rate limiting step in this process because it is ˜50-100 times slower than GTP hydrolysis by Gαi subunits (Mukhopadhyay & Ross, 2002). Thus, the steady-state GTPase activity reflects the rate of nucleotide exchange, and was performed as described previously (Garcia-Marcos et al, 2010; Garcia-Marcos et al, 2012; Garcia-Marcos et al, 2011b). Briefly, His-Gαi3 (100 nM) was preincubated with different concentrations of His-DAPLE-CT (aa 1650-2028) for 15 min at 30° C. in assay buffer [20 mM Na-HEPES, pH 8, 100 mM NaCl, 1 mM EDTA, 2 mM MgCl2, 1 mM DTT, 0.05% (w:v) C12E10]. GTPase reactions were initiated at 30° C. by adding an equal volume of assay buffer containing 1 μM [γ-^32P]GTP (˜50 c.p.m/fmol). […] Samples were then centrifuged for 10 min at 10,000×g, and 500 μl of the resultant supernatant were scintillation counted to quantify released [^32P]Pi. For the time course experiments, data was expressed as raw c.p.m. For the dose-dependence curve experiments, the background [^32P]Pi detected at 15 min in the absence of G protein was subtracted from each reaction and data expressed as percentage of the Pi produced by His-Gαi3 in the absence of His-DAPLE-CT.

[7] = target: T1, His-Gαi3; assay: GTPγS binding assay; format: biochemical; settings: 0-2 μM, 15 min
Protocol: GTPγS binding was measured using a filter binding method as described previously (Garcia-Marcos et al, 2010; Garcia-Marcos et al, 2011b). His-Gαi3 (100 nM) was preincubated with different concentrations of His-DAPLE-CT (aa 1650-2028) for 15 min at 30° C. in assay buffer [20 mM Na-HEPES, pH 8, 100 mM NaCl, 1 mM EDTA, 25 mM MgCl2, 1 mM DTT, 0.05% (w:v) C12E10]. Reactions were initiated at 30° C. by adding an equal volume of assay buffer containing 1 μM [^35S] GTPγS (˜50 c.p.m/fmol). Duplicate aliquots (25 μl) were removed at different time points, and binding of radioactive nucleotide was stopped by addition of 3 ml, ice-cold wash buffer (20 mM Tris-HCl, pH 8.0, 100 mM NaCl, 25 mM MgCl2). The quenched reactions were rapidly passed through BA-85 nitrocellulose filters (GE Healthcare) and washed with 4 ml wash buffer. Filters were dried and subjected to liquid scintillation counting. To determine the specific nucleotide binding, the background [^35S]GTPγS detected in the absence of G protein was subtracted from each reaction and data expressed as percentage of the [^35S] GTPγS bound by His-Gαi3 in the absence of His-DAPLE-CT.

[8] = target: T2, GST-Gαi3·Gβγ preformed complexes (Rattus norvegicus, UniProt P08753); assay: Gβγ displacement assay; format: binding; settings: 0.05-1 μM WT or 1 μM F1675A
T2 construct: made in house; host or cells: E. coli BL21 (DE3) for GST-Gαi3; Gβγ endogenous from HEK293T lysate
Protocol: This assay was performed as described previously (Garcia-Marcos et al, 2009). Briefly, GST alone or GST-Gαi3 proteins immobilized on glutathione-agarose beads were incubated overnight at 4° C. with HEK293T cell lysates in binding buffer [50 mM Tris-HCl, pH 7.4, 100 mM NaCl, 0.4% (v:v) NP-40, 10 mM MgCl2, 5 mM EDTA, 2 mM DTT, protease inhibitor cocktail supplemented with 30 μM GDP]. Unbound Gβγ-subunits were washed twice with the same buffer and proteins bound to the glutathione-agarose beads divided into equal aliquots containing ˜5 μg (˜0.4 μM) GST-fusion proteins. Aliquots were incubated with increasing concentrations (0.05-1 μM) of purified His-DAPLE-CT (1650-2028) wild-type or 1 μM His-DAPLE-CT F1675A in binding buffer supplemented with GDP (˜200 μl) for 5 h at 4° C. Glutathione-agarose beads were washed and bound proteins eluted by boiling in Laemmli sample buffer and separated by SDS-PAGE.

[9] = target: T3, GST-FZD7R-CT (Homo sapiens, UniProt O75084); assay: GST-FZD7-CT pulldown of His-Gαi3; format: binding; settings: His-Gαi3 preloaded with GDP, in the presence of DAPLE-CT
T3 construct: the GST-tagged cytoplasmic tail of FZD7R; made in house; host or cells: bacteria (E. coli BL21 (DE3)); plasmid a gift of R. Yao
Protocol: GST-FZD7-CT and GST-PBD constructs were immobilized on glutathione-Sepharose beads directly from bacterial lysates by overnight incubation at 4° C. with constant tumbling. Next morning, GST-FZD7-CT immobilized on glutathione beads were washed and subsequently incubated with His-tagged DAPLE-CT or Gαi3 proteins at 4° C. with constant tumbling. Washes and immunoblotting were performed as previously.

| displacement of Gβγ from pre-assembled complex with GST-Gαi3 [8] | increase of Gαi3 binding to GST-FZD7R-CT [9] | Molecule | invasion of matrigel by spheroids [1] | eGFP signal (Wnt transcriptional activity) [2] | reduction of number of colonies in soft-agar [3] | inhibition of anchorage-independent tumor growth [4] | adherent colonies per well (tumor growth) ([5]; DLD1 cells stably expressing constructs, 2-3 weeks) | inhibition of anchorage-dependent tumor growth [5] | acceleration of steady-state GTPase activity diminished versus His-DAPLE-CT WT [6] | initial rate of nucleotide (GTPγS) binding by His-Gαi3 [7] |
| --- | --- | --- | --- | --- | --- | --- | --- | --- | --- | --- |
|  |  | DAPLE-WT: myc-tagged full length human DAPLE (SEQ ID NO: 2) expressed in cells from pcDNA 3.1 | increase of invasion tracks | showed inhibition of eGFP | ~65% | ~50% | can inhibit tumor growth | ~90% |  |  |
|  |  | DAPLE-FA: full length myc-DAPLE with F1675A mutation in the GBA motif, expressed in cells |  |  | failed to inhibit | enhanced oncogenicity |  | failed to inhibit |  |  |
| not | not | B1 |  |  |  |  |  |  | > 90% | not significantly affected |
